The record followed here is patent US12729192B2, “CDK9 inhibitor and use thereof” (PHARMABLOCK SCIENCES (NANJING), INC., priority 2020, dated 2026).

What all share (format): biochemical
What all share (conditions): 10 μM ATP, 2 h at room temperature

One assay has as its target T1, CDK7 (Homo sapiens, UniProt P50613).
T1 construct: purchased Carna Biosciences, Inc
Put plainly: CDK7 kinase activity inhibition (ADP-Glo). As to the method:
(§1) CDK9 kinase was manufactured by the company or commercially available. CDK1, CDK2 and CDK7 were purchased from Carna Biosciences, Inc. ADP-Glo™ kit was purchased from Promega Corporation. Dithiothreitol (DTT), Tween-20, dimethylsulfoxide (DMSO), bovine serum albumin (BSA) and Tris base were obtained from Sigma at the available highest level of purity.
(§2) General procedures for CDK inhibition determination: The determination was performed in a buffer consisting of 50 μM DTT, 0.1% BSA, 40 mM Tris-HCl pH=7.5 and 20 mM MgCl2. The compound dissolved in DMSO and CDK enzymes were diluted with the buffer. 1 μL of the compound solution in 5% DMSO and 2 μL of the CDK enzyme solution were added to a white low-volume 384-well microtiter plate and incubated for 20 min at room temperature. Ultra pure ATP and the substrate polypeptide (purchased from GenScript Biotech Corporation) were diluted together into the buffer and added to a mixed solution of the compound and the enzyme, 2 μL per well. They were incubated for 2 h at room temperature.
(§3) After the reaction was completed, 5 μL of ADP-Glo™ reagent was added to each well and incubated for 40 min at room temperature, and then 10 μL of test reagent was added to each well and incubated for 30 mi at room temperature. Chemical luminescence values were measured by using a Tecan (Männedorf, Switzerland) multifunctional plate reader Spark for plate reading. The IC50 value of the inhibitor was obtained by fitting the chemical luminescence intensity ratio in the S-shaped dosage reaction curve using Prism 7 (La Jolla, 15 CA) relative to the concentration of the inhibitor.

A further assay addresses T2, CDK2 (Homo sapiens, UniProt P24941).
T2 construct: purchased Carna Biosciences, Inc
The assay can be described thus: CDK2 kinase activity inhibition (ADP-Glo). The procedure: as §1, §2, §3

The next assay has as its target CDK9 (Homo sapiens, UniProt P50750). Put plainly: CDK9 kinase activity inhibition (ADP-Glo). As to the method: as §1, §2, §3

Structures are written as SMILES.

Sequence of CDK9 (P50750 whole entry): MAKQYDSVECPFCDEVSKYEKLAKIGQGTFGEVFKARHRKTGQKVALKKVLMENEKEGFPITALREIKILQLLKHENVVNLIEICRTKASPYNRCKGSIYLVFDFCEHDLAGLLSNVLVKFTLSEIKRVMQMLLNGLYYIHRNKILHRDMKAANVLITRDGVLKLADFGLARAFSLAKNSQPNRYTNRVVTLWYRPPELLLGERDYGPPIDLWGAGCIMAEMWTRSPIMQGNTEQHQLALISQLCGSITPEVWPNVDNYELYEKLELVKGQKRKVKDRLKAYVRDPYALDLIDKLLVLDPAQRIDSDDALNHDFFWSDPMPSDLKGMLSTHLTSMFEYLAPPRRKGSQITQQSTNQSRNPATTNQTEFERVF
Sequence of CDK9 (O60563 whole entry partner): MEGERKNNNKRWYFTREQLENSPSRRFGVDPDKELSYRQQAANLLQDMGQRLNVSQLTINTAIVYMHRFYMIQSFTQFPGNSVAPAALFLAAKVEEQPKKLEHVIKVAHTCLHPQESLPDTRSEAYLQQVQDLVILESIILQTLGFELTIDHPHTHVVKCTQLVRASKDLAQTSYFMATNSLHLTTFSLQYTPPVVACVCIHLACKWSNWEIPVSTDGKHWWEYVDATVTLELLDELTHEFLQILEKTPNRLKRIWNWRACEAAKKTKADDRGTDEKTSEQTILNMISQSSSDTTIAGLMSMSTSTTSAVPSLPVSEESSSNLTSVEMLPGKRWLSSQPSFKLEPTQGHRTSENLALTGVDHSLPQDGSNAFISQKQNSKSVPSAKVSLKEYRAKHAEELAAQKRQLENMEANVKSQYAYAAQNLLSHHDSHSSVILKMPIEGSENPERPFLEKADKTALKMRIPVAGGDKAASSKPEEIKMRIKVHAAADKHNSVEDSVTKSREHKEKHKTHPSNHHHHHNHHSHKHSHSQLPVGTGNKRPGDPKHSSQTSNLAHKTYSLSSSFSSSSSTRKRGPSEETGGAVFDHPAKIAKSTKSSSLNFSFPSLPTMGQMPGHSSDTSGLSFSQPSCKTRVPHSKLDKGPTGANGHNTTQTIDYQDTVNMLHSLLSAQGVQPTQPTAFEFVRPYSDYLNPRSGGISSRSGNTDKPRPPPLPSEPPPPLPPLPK
T1 sequence (P50613 whole entry): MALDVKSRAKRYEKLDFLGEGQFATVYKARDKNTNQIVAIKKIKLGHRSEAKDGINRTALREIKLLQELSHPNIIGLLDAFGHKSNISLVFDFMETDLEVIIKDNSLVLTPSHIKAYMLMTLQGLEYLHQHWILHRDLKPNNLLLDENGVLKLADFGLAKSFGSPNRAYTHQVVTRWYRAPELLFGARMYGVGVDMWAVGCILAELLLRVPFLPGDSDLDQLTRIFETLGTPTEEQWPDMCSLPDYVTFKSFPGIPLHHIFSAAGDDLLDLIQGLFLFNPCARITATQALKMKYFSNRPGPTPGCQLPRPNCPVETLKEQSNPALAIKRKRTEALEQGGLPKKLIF
T1 sequence (P51946 whole entry partner): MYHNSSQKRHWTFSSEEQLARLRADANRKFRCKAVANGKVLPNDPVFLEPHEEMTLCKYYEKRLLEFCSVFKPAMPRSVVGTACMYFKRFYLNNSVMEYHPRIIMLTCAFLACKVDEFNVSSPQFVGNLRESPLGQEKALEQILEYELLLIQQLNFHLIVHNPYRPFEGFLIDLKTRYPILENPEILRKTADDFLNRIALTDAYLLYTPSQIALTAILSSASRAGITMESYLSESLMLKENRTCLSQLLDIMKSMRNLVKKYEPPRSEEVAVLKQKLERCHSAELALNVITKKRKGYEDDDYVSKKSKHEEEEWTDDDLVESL
T1 sequence (P51948 whole entry partner): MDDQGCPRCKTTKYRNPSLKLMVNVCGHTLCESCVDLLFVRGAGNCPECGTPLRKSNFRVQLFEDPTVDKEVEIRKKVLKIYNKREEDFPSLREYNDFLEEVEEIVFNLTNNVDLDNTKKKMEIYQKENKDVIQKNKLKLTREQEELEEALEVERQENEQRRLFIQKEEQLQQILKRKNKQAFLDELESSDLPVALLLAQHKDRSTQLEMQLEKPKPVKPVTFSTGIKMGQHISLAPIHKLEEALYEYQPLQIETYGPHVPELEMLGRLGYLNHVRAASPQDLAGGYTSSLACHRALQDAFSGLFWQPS

With `CC(=O)NC[C@H]1CCC(F)(F)CN1C(=O)c1nc(Nc2cc3[nH]ccc3cn2)ccc1C` [Compound 12, (R)—N-((1-(6-((1H-pyrrolo[3,2-c]pyridin-6-yl)amino)-3-methylpyridine-2-carbonyl)-5,5-difluoropiperidin-2-yl)methyl)acetamide], the IC50 on CDK7 was over 10000 nM; on CDK2, over 10000 nM; against CDK9, 163 nM.

In the case of `CC(=O)NC[C@H]1CCC(F)(F)CN1C(=O)c1nc(Nc2cc(C(C)(C)C)sn2)ccc1C` [Compound 13, (R)—N-((1-(6-((5-(t-butyl)isothiazol-3-yl)amino)-3-methylpyridine-2-carbonyl)-5,5-difluoropiperidin-2-yl)methyl)acetamide], the results for the half-maximal inhibitory concentration (IC50) against CDK7, on CDK2 and against CDK9 were over 10000 nM, 704 nM and 64 nM, respectively.

Consider `CC(=O)NC[C@H]1CCC(F)(F)CN1C(=O)c1nc(Nc2cc(-c3cnn4c3CCC4)ccn2)ccc1C` [Compound 18, (R)—N-((1-(6-((4-(5,6-dihydro-4H-pyrrolo[1,2-b]pyrazol-3-yl)pyridin-2-yl)amino)-3-methylpyridine-2-carbonyl)-5,5-difluoropiperidin-2-yl)methyl)acetamide], for which the IC50 on CDK2 was found to be 3310 nM; at CDK9 it was 33.6 nM.

`CC(=O)NC[C@H]1CCC(F)(F)CN1C(=O)c1nc(Nc2cc(C3CCCC3)ccn2)ccc1C` [Compound 20, (R)—N-((1-(6-((4-cyclopentylpyridin-2-yl)amino)-3-methylpyridine-2-carbonyl)-5,5-difluoropiperidin-2-yl)methyl)acetamide]: the IC50 stood at 1230 nM at CDK2 and 44.1 nM against CDK9.

Take `CC(=O)NC[C@H]1CCC(F)(F)CN1C(=O)c1nc(Nc2cc(N3CCCC3)ccn2)ccc1C` [Compound 21, (R)—N-((5,5-difluoro-1-(3-methyl-6-((4-(pyrrolidin-1-yl)pyridin-2-yl)amino)pyridine-2-carbonyl)piperidin-2-yl)methyl)acetamide]: the 50% inhibitory concentration (IC50) is over 10000 nM against CDK2 and 182 nM against CDK9.

For `CC(=O)NC[C@H]1CCC(F)(F)CN1C(=O)c1nc(Nc2ncccn2)ccc1C` [Compound 23, (R)—N-((5,5-difluoro-1-(3-methyl-6-(pyrimidin-2-ylamino)pyridine-2-carbonyl)piperidin-2-yl)methyl)acetamide], the half-inhibitory concentration (IC50) against CDK2 is over 10000 nM; against CDK9, 4620 nM.

As for `CC(=O)NC[C@H]1CCC(F)(F)CN1C(=O)c1nc(Nc2ccncn2)ccc1C` [Compound 25, (R)—N-((5,5-difluoro-1-(3-methyl-6-(pyrimidin-4-ylamino)pyridine-2-carbonyl)piperidin-2-yl)methyl)acetamide], the IC50 was over 10000 nM on CDK2 and 218 nM on CDK9.

On to `CC(=O)NC[C@H]1CCC(F)(F)CN1C(=O)c1nc(Nc2cnccn2)ccc1C` [Compound 26, (R)—N-((5,5-difluoro-1-(3-methyl-6-(pyrazin-2-ylamino)pyridine-2-carbonyl)piperidin-2-yl)methyl)acetamide], for which the IC50 on CDK2 was 3610 nM; at CDK9 it was 17.8 nM.

In the case of `CC(=O)NC[C@H]1CCC(F)(F)CN1C(=O)c1nc(Nc2ncccc2OC(F)(F)F)ccc1C` [Compound 29, (R)—N-((5,5-difluoro-1-(3-methyl-6-((3-(trifluoromethoxy)pyridin-2-yl)amino)pyridine-2-carbonyl)piperidin-2-yl)methyl)acetamide], the IC50 on CDK2 is over 10000 nM; on CDK9, 5710 nM.

Regarding `CCOc1ccnc(Nc2ccc(C)c(C(=O)N3CC(F)(F)CC[C@@H]3CN)n2)c1` [Compound 37, (R)-(2-(aminomethyl)-5,5-difluoropiperidin-1-yl)(6-((4-ethoxypyridin-2-yl)amino)-3-methylpyridin-2-yl)methanone], the results for the concentration for half-maximal inhibition (IC50) against CDK2 and against CDK9 were 3560 nM and 26.6 nM, respectively.

As for `Cc1ccc(Nc2cc(OC(F)(F)F)ccn2)nc1C(=O)N1CCCC(F)(F)CC1` [Compound 38, (4,4-Difluoroazepin-1-yl)(3-methyl-6-((4-(trifluoromethoxy)pyridin-2-yl)amino)pyridin-2-yl)methanone], the IC50 worked out at 447 nM against CDK2 and 267 nM at CDK9.

Turning to `CC(=O)N[C@@H]1CN(C(=O)c2nc(Nc3cc(OC(F)(F)F)ccn3)ccc2C)CC(F)(F)C1` [Compound 42, (S)—N-(5,5-difluoro-1-(3-methyl-6-((4-(trifluoromethoxy)pyridin-2-yl)amino)pyridine-2-carbonyl)piperidin-3-yl)acetamide], the concentration for half-maximal inhibition (IC50) on CDK2 came out at 361 nM; on CDK9 it was 34.8 nM.

Consider `CC(=O)N[C@H]1CN(C(=O)c2nc(Nc3cc(OC(F)(F)F)ccn3)ccc2C)CC(F)(F)C1` [Compound 43, (R)—N-(5,5-difluoro-1-(3-methyl-6-((4-(trifluoromethoxy)pyridin-2-yl)amino)pyridine-2-carbonyl)piperidin-3-yl)acetamide], for which the values for the half-maximal inhibitory concentration (IC50) on CDK2 and against CDK9 were over 10000 nM and 167 nM, respectively.

Consider `CC(=O)NCC1CCC(F)(F)CN1C(=O)c1nc(Nc2cc(OC(F)(F)F)ccn2)ccc1C` (centres unmarked) [Compound 44, N-((5,5-difluoro-1-(3-methyl-6-((4-(trifluoromethoxy)pyridin-2-yl)amino)pyridine-2-carbonyl)piperidin-2-yl)methyl)acetamide], for which the half-inhibitory concentration (IC50) against CDK2 worked out at 679 nM; against CDK9, 23 nM.

In the case of `CC(=O)NC[C@H]1CCCCN1C(=O)c1nc(Nc2cc(OC(F)(F)F)ccn2)ccc1C` [Compound 45, (R)—N-((1-(3-methyl-6-((4-(trifluoromethoxy)pyridin-2-yl)amino)pyridine-2-carbonyl)piperidin-2-yl)methyl)acetamide], the IC50 at CDK2 was determined as 884 nM; at CDK9, 19.9 nM.

Consider `CCNC(=O)C1CCC(F)(F)CN1C(=O)c1nc(Nc2cc(OC(F)(F)F)ccn2)ccc1C` (centres unmarked) [Compound 49, N-ethyl-5,5-difluoro-1-(3-methyl-6-((4-(trifluoromethoxy)pyridin-2-yl)amino)pyridine-2-carbonyl)piperidine-2-carboxamide], for which the half-maximal inhibitory concentration (IC50) at CDK2 was 3210 nM; on CDK9 it was 107 nM.

With `CC(=O)N[C@@H]1C[C@H](NC(=O)c2nc(Nc3cc(OC(F)(F)F)ccn3)ccc2C)CC(F)(F)C1` [Compound 50, N-((1S,5R)-5-acetamido-3,3-difluorocyclohexyl)-3-methyl-6-((4-4-trifluoromethoxypyridin-2-yl)amino)pyridine-2-carbonylamide], the half-inhibitory concentration (IC50) on CDK2 was over 10000 nM; on CDK9, 573 nM.

`CC(=O)N(C)C[C@H]1CCC(F)(F)CN1C(=O)c1nc(Nc2cc(OC(F)(F)F)ccn2)ccc1C` [Compound 52, (R)—N-((5,5-difluoro-1-(3-methyl-6-((4-(trifluoromethoxy)pyridin-2-yl)amino)pyridine-2-carbonyl)piperidin-2-yl)methyl)-N-methylacetamide]: the values for the IC50 on CDK2 and against CDK9 were 658 nM and 14.6 nM, respectively.

With `CNC(=O)c1ccnc(Nc2ccc(C)c(C(=O)N3CC(F)(F)CC[C@@H]3CNC(C)=O)n2)c1` [Compound 55, (R)-2-((6-(2-(acetamidomethyl)-5,5-difluoropiperidine-1-carbonyl)-5-methylpyridin-2-yl)amino)-N-methyl isonicotinamide], the figures for the IC50 against CDK2 and against CDK9 were over 10000 nM and 28.3 nM, respectively.

`CC(=O)NC[C@H]1CCC(F)(F)CN1S(=O)(=O)c1cc(Nc2cc(OC(F)(F)F)ccn2)ccc1C` [Compound 58, (R)—N-((5,5-difluoro-1-((2-methyl-5-((4-(trifluoromethoxy)pyridin-2-yl)amino)phenyl)sulfonyl)piperidin-2-yl)methyl)acetamide]: the IC50 against CDK2 and on CDK9 was over 10000 nM each time.

For `CC(=O)NC[C@H]1CCC(F)(F)CN1Cc1nc(Nc2cc(OC(F)(F)F)ccn2)ccc1C` [Compound 62, (R)—N-((5,5-difluoro-1-((3-methyl-6-((4-(trifluoromethoxy)pyridin-2-yl)amino)pyridin-2-yl)methyl)piperidin-2-yl)methyl)acetamide], the IC50 on CDK2 was over 10000 nM; on CDK9, 531 nM.

As for `CC(C)(C)OC(=O)NC[C@H]1CCC(F)(F)CN1C(=O)c1nc(Nc2cc(OC(F)(F)F)ccn2)ccc1F` [Compound 66], the IC50 at CDK2 stood at 1260 nM; at CDK9, 647 nM.

Take `CC(=O)NC[C@H]1CCC(F)(F)CN1C(=O)c1cc(Nc2cc(OC(F)(F)F)ccn2)ncc1C` [Compound 72, (R)—N-((5,5-difluoro-1-(5-methyl-2-((4-(trifluoromethoxy)pyridin-2-yl)amino)isonicotinoyl)piperidin-2-yl)methyl)acetamide]: the values for the concentration for half-maximal inhibition (IC50) against CDK2 and against CDK9 were over 10000 nM and 1310 nM, respectively.

Consider `CC(=O)NC[C@H]1CCC(F)(F)CN1C(=O)c1nc(Nc2cc(OC(F)(F)F)ccn2)ncc1C` [Compound 76, (R)—N-((5,5-difluoro-1-(5-methyl-2-((4-(trifluoromethoxy)pyridin-2-yl)amino)pyrimidine-4-carbonyl)piperidin-2-yl)methyl)acetamide], for which the IC50 on CDK2 came out at 5780 nM; on CDK9, 18.4 nM.
